Several values for one entry are separate records, joined by “and”; a condition that tells them apart may be missing. Equal entries are not always repeated. Toxic doses and inconclusive results are not listed. Cut-off read from the data, not from the text of the source: active = T/C of 150% or more; inactive = T/C below 125%.
System: L1210 leukemia ip in BDF1 mice, survival T/C
Test: NCI In Vivo Anticancer Drug Screen. Data for tumor model L1210 Leukemia (intraperitoneal) in B6D2F1 (BDF1) mice
Settings: endpoint: mean survival time, higher = longer survival
Outline: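 Tumor was transplanted into mice, which were then dosed with test compound or vehicle alone. Survival was recorded for each group, and the treated figure was expressed relative to the control figure.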

[1] = dose: 75.0 mg/kg/injection, schedule: Q01DX001 (ip), vehicle: acetone
[2] = dose: 150.0 mg/kg/injection, schedule: Q01DX001 (ip), vehicle: acetone
[3] = dose: 300.0 mg/kg/injection, schedule: Q01DX001 (ip), vehicle: acetone
[4] = dose: 100.0 mg/kg/injection, schedule: Q01DX009 (ip), vehicle: Klucel (hydroxypropylcellulose) (HPC)
[5] = dose: 100.0 mg/kg/injection, schedule: Q04DX002 (ip), vehicle: Klucel (hydroxypropylcellulose) (HPC)
[6] = dose: 200.0 mg/kg/injection, schedule: Q01DX009 (ip), vehicle: Klucel (hydroxypropylcellulose) (HPC)
[7] = dose: 200.0 mg/kg/injection, schedule: Q04DX002 (ip), vehicle: Klucel (hydroxypropylcellulose) (HPC)
[8] = dose: 400.0 mg/kg/injection, schedule: Q01DX009 (ip), vehicle: Klucel (hydroxypropylcellulose) (HPC)
[9] = dose: 400.0 mg/kg/injection, schedule: Q04DX002 (ip), vehicle: Klucel (hydroxypropylcellulose) (HPC)
[10] = dose: 100.0 mg/kg/injection, schedule: Q01DX001 (ip), vehicle: carboxymethylcellulose (CMC)
[11] = dose: 200.0 mg/kg/injection, schedule: Q01DX001 (ip), vehicle: carboxymethylcellulose (CMC)
[12] = dose: 400.0 mg/kg/injection, schedule: Q01DX001 (ip), vehicle: carboxymethylcellulose (CMC)
[13] = dose: 100.0 mg/kg/injection, schedule: Q01DX001 (ip), vehicle: saline
[14] = dose: 200.0 mg/kg/injection, schedule: Q01DX001 (ip), vehicle: saline
[15] = dose: 400.0 mg/kg/injection, schedule: Q01DX001 (ip), vehicle: saline
[16] = dose: 50.0 mg/kg/injection, schedule: Q01DX001 (ip), vehicle: saline
[17] = dose: 100.0 mg/kg/injection, schedule: Q04DX003 (ip), vehicle: saline with Tween-80
[18] = dose: 200.0 mg/kg/injection, schedule: Q04DX003 (ip), vehicle: saline with Tween-80
[19] = dose: 100.0 mg/kg/injection, schedule: Q01DX001 (ip), vehicle: Klucel (hydroxypropylcellulose) (HPC)
[20] = dose: 200.0 mg/kg/injection, schedule: Q01DX001 (ip), vehicle: Klucel (hydroxypropylcellulose) (HPC)
[21] = dose: 100.0 mg/kg/injection, schedule: Q04DX003 (ip), vehicle: Klucel (hydroxypropylcellulose) (HPC)
[22] = dose: 200.0 mg/kg/injection, schedule: Q04DX003 (ip), vehicle: Klucel (hydroxypropylcellulose) (HPC)
[23] = dose: 400.0 mg/kg/injection, schedule: Q04DX003 (ip), vehicle: Klucel (hydroxypropylcellulose) (HPC)

Measured: T/C

CC(O)C(=O)N(O)c1ccccc1OCc1ccccc1 (stereo not drawn)
inactive: [1] 104 % of control | dose: 75.0 mg/kg/injection, schedule: Q04DX003 (ip), vehicle: acetone 102 % of control | [2] 91 % of control | dose: 150.0 mg/kg/injection, schedule: Q04DX003 (ip), vehicle: acetone 98 % of control | [3] 89 % of control | dose: 300.0 mg/kg/injection, schedule: Q04DX003 (ip), vehicle: acetone 96 % of control

O=[N+]([O-])c1ccccc1N=Nc1c(O)[nH]c2ccc(F)cc12
inactive: [1] 96 % of control | [2] 96 % of control | [3] 103 % of control

NC(=O)Nc1ccccc1
inactive: [4] 103 % of control | [5] 109 % of control | [6] 106 % of control | [7] 109 % of control | [8] 103 % of control | [9] 88 % of control

Nc1cc2c(cc1I)-c1ccc(Br)cc1C2
inactive: [10] 102 % of control | [11] 107 % of control | [12] 98 % of control

N#[N+]c1ccc2[nH]c3ccccc3c(=O)c2c1
inactive: dose: 5.0 mg/kg/injection, schedule: Q01DX009 (ip), vehicle: saline 105 % of control | dose: 10.0 mg/kg/injection, schedule: Q01DX001 (ip), vehicle: saline 101 % of control | dose: 10.0 mg/kg/injection, schedule: Q01DX009 (ip), vehicle: saline 102 % of control | dose: 10.0 mg/kg/injection, schedule: Q04DX003 (ip), vehicle: saline 94 % of control | dose: 20.0 mg/kg/injection, schedule: Q01DX001 (ip), vehicle: saline 101 % of control | dose: 20.0 mg/kg/injection, schedule: Q01DX009 (ip), vehicle: saline 94 % of control | dose: 20.0 mg/kg/injection, schedule: Q04DX003 (ip), vehicle: saline 97 % of control | dose: 40.0 mg/kg/injection, schedule: Q01DX001 (ip), vehicle: saline 104 % of control | dose: 40.0 mg/kg/injection, schedule: Q04DX003 (ip), vehicle: saline 97 % of control

c1ccc(C2c3cc4ccccc4cc3Oc3ccc4ccccc4c32)cc1 (stereo not drawn)
inactive: dose: 75.0 mg/kg/injection, schedule: Q04DX003 (ip), vehicle: other 94 % of control | dose: 300.0 mg/kg/injection, schedule: Q04DX003 (ip), vehicle: other 103 % of control

CC(=O)C1(C)C(=O)N(c2ccc(C)cc2)C(=O)N1c1ccc(C)cc1 (stereo not drawn)
inactive: [13] 104 % of control | [14] 102 % of control | [15] 102 % of control

O=C1c2ccccc2C(=O)N1OCCCBr
inactive: [16] 96 % of control | [13] 102 % of control | [14] 102 % of control | [15] 102 % of control

CCOC(=O)c1cc(=O)[nH]c2ccc(OC)cc12
inactive: [17] 98 % of control | [18] 102 % of control | dose: 400.0 mg/kg/injection, schedule: Q04DX003 (ip), vehicle: saline with Tween-80 91 % of control

CCOC(=O)COc1ccccc1Cl
inactive: dose: 1.56 mg/kg/injection, schedule: Q04DX002 (ip), vehicle: Klucel (hydroxypropylcellulose) (HPC) 115 % of control | dose: 3.13 mg/kg/injection, schedule: Q04DX002 (ip), vehicle: Klucel (hydroxypropylcellulose) (HPC) 105 % of control | dose: 6.25 mg/kg/injection, schedule: Q04DX002 (ip), vehicle: Klucel (hydroxypropylcellulose) (HPC) 108 % of control | dose: 12.5 mg/kg/injection, schedule: Q04DX002 (ip), vehicle: Klucel (hydroxypropylcellulose) (HPC) 106 % of control | dose: 25.0 mg/kg/injection, schedule: Q04DX002 (ip), vehicle: Klucel (hydroxypropylcellulose) (HPC) 95 % of control | dose: 50.0 mg/kg/injection, schedule: Q04DX002 (ip), vehicle: Klucel (hydroxypropylcellulose) (HPC) 97 % of control

CSc1ccc(B2Oc3cc(Cl)c(Cl)cc3O2)cc1
inactive: dose: 100.0 mg/kg/injection, schedule: Q04DX003 (ip), vehicle: alcohol 124 % of control | dose: 200.0 mg/kg/injection, schedule: Q04DX003 (ip), vehicle: alcohol 95 % of control | dose: 400.0 mg/kg/injection, schedule: Q04DX003 (ip), vehicle: alcohol 100 % of control

COC(=O)C(CCl)NC(=O)NCCCl (stereo not drawn)
inactive: [19] 96 % of control | [20] 96 % of control | dose: 400.0 mg/kg/injection, schedule: Q01DX001 (ip), vehicle: Klucel (hydroxypropylcellulose) (HPC) 96 % of control

c1ccc2[nH]c(C(=C(c3nc4ccccc4[nH]3)c3nc4ccccc4[nH]3)c3nc4ccccc4[nH]3)nc2c1
inactive: [19] 87 % of control | [21] 97 % of control | [20] 87 % of control | [22] 112 % of control | [23] 90 % of control

CN(C)C=Nc1ncnc2[nH]ncc12
inactive: [17] 107 % of control | dose: 150.0 mg/kg/injection, schedule: Q04DX003 (ip), vehicle: saline with Tween-80 107 % of control | [18] 123 % of control | dose: 250.0 mg/kg/injection, schedule: Q04DX003 (ip), vehicle: saline with Tween-80 123 % of control

O=C(O)c1ccc2c(c1Cl)C(=O)c1ccccc1C2=O
inactive: [17] 98 % of control | [18] 93 % of control

CCCCCCCCCCCCCCCC(=O)Nc1ccc(C(=O)O)cc1
inactive: [21] 95 % of control | [22] 94 % of control | [23] 94 % of control

COc1ccccc1/C=C1\SC(=O)N(CCNC(C)=O)C1=O
inactive: [13] 98 % of control | [14] 100 % of control | [15] 96 % of control

O=C1OC2C(I)C3CCC2C1C3 (stereo not drawn)
inactive: dose: 100.0 mg/kg/injection, schedule: Q01DX009 (ip), vehicle: saline 98 % of control | dose: 100.0 mg/kg/injection, schedule: Q04DX003 (ip), vehicle: saline 102 % of control | dose: 200.0 mg/kg/injection, schedule: Q01DX009 (ip), vehicle: saline 102 % of control | dose: 200.0 mg/kg/injection, schedule: Q04DX003 (ip), vehicle: saline 105 % of control | dose: 400.0 mg/kg/injection, schedule: Q01DX009 (ip), vehicle: saline 98 % of control | dose: 400.0 mg/kg/injection, schedule: Q04DX003 (ip), vehicle: saline 98 % of control

CCCCSCC(N)C(=O)O (stereo not drawn)
inactive: [4] 96 % of control | [21] 92 % of control | [6] 96 % of control | [22] 94 % of control | [8] 98 % of control | [23] 103 % of control

COc1ccc(OCCO)cc1
inactive: [4] 95 % of control | [5] 96 % of control | [6] 98 % of control | [7] 93 % of control | [8] 103 % of control | [9] 100 % of control

C=C(C)CC(N)Cc1ccccc1 (stereo not drawn)
inactive: dose: 50.0 mg/kg/injection, schedule: Q04DX002 (ip), vehicle: saline with Tween-80 89 % of control | dose: 100.0 mg/kg/injection, schedule: Q04DX002 (ip), vehicle: saline with Tween-80 95 % of control and 103 % of control

Nc1ccc(Cc2[nH]c(=O)[nH]c(=O)c2Br)cc1[N+](=O)[O-]
inactive: dose: 25.0 mg/kg/injection, schedule: Q01DX001 (ip), vehicle: Klucel (hydroxypropylcellulose) (HPC) 103 % of control | dose: 50.0 mg/kg/injection, schedule: Q01DX001 (ip), vehicle: Klucel (hydroxypropylcellulose) (HPC) 95 % of control | [19] 93 % of control

Nc1nc(-c2ccccc2N=NN2CCCCC2)nc2ccccc12
inactive: dose: 50.0 mg/kg/injection, schedule: Q01DX009 (ip), vehicle: Klucel (hydroxypropylcellulose) (HPC) 107 % of control | [4] 118 % of control | [21] 109 % of control | [6] 107 % of control | [22] 104 % of control

COc1cc(N(CCCl)CCCl)c(OC)cc1C=Nc1cccc(C(F)(F)F)c1
inactive: [10] 120 % of control | [11] 115 % of control | [12] 98 % of control

O=[N+]([O-])c1ccc(/C=C/c2ncc[nH]2)o1
inactive: [21] 92 % of control | [22] 92 % of control

O=c1cc[nH]c2ccc(Cl)cc12
inactive: [16] 117 % of control | [13] 102 % of control

Source: PubChem BioAssay AID248 (DTP/NCI, 2004)
